Reference: paper PMC8581430, “Peptide ligands targeting FGF receptors promote recovery from dorsal root crush injury via AKT/mTOR signaling” (Theranostics, 2021)

Legend:
primary DRG neurons = experiment: Axon growth of primary adult DRG neurons; type: cell-based, Sprague-Dawley rat; conditions: 48 h
Description: (§1) Figure 3 Effect of the CH02 peptide on axon growth and neuron survival. (A) Representative images of the CH02 peptide effect on axon growth in adult primary DRG neurons. DRG neurons were obtained from adult Sprague-Dawley rats. After 12-h of culture, neurons were stimulated with CH02 or bFGF for 48 h. Axonal outgrowth was assessed by immunocytochemistry using an antibody against β-tubulin, an axonal marker. Images were acquired from random neurons by fluorescence microscopy. Scale bars = 50 μm. (B) Quantification of the longest axon length of each neuron randomly selected in three independent experiments from (A), using Image-Pro Plus 6.0 software (n = 48 for each condition; *p < 0.05, ****p < 0.0001 by one-way ANOVA with Dunnett's test; ns, not significant; mean ± SD). (C) Representative images of the CH02 effect on axon growth in ex vivo cultured adult DRG explants. The axon is shown in fluorescence (β3-tubulin) images. Scale bars = 100 μm. (D) Quantification of axon growth of DRG explants from (C) using the Neurite-J software (n=4 for each condition; *control vs. CH02; #control vs. bFGF; *p < 0.05, **p < 0.01, ***p < 0.001, #p < 0.05, ##p < 0.01 by two-way ANOVA with Dunnett's test; ns, not significant; mean ± SEM). (E) Cell cytotoxicity assay of primary DRG neurons induced by H2O2. LDH released from damaged cell membranes was detected by an LDH assay kit. The results are expressed as the mean ± SEM (**p < 0.01 by one-way ANOVA with Dunnett's test; ns, not significant, compared with the control group). (F) Representative TUNEL staining of apoptotic neurons induced by H2O2 in the control, CH02, and FGF2 groups. Scale bars = 50 μm. Apoptotic neurons were detected by a TUNEL apoptosis assay kit. TUNEL (green); NeuN, neuronal marker (red); DAPI (blue). (G) Quantification of TUNEL-positive neurons from (F) (n = 3 for each condition; **p < 0.01 by one-way ANOVA with Dunnett's test; ns, not significant, compared with the control group). DRG neurons were obtained from adult Sprague-Dawley rats. […]

DRG explants = experiment: Axon growth of ex vivo cultured adult DRG explants; type: cell-based, Sprague-Dawley rat; conditions: 4 days
Description: as §1, with “(F) Representative TUNEL staining of apoptotic neurons induced by H2O2 in the control, CH02, and FGF2 groups. Scale bars = 50 μm.” left out, “TUNEL (green); NeuN, neuronal marker (red); DAPI (blue).” left out, “group).” for “group). DRG neurons were obtained from adult Sprague-Dawley rats.”
DRG explants were harvested from adult Sprague-Dawley rats (220-250 g) and placed in a 3.5 cm dish containing 2 mL of ice-cold neurobasal medium supplemented with 1 × B27, 4 mM Glutamax and 3× penicillin/streptomycin (Pen/Strep). […] After 7 days of culture, axon growth was measured. […]

| SMILES | effect of inhibitor on CH02-enhanced neurite outgrowth, primary neurons (primary DRG neurons; CH02 20 μM + BGJ398 2 μM, n = 100) | effect of inhibitor on CH02-enhanced neurite outgrowth, DRG explants (DRG explants; CH02 20 μM + BGJ398 2 μM, n = 5) | effect of AKT/ERK inhibitor on axon growth-promoting effect of CH02, DRG neurons (primary DRG neurons; CH02 20 μM + inhibitor 2 μM, n = 40) | effect of AKT/ERK inhibitor on axon growth-promoting effect of CH02, DRG explants (DRG explants; CH02 20 μM + inhibitor 2 μM, n = 4) |
| --- | --- | --- | --- | --- |
| CCN1CCN(c2ccc(Nc3cc(N(C)C(=O)Nc4c(Cl)c(OC)cc(OC)c4Cl)ncn3)cc2)CC1 [BGJ398] | inhibited the enhancement of neuron outgrowth associated with CH02 treatment | inhibited the enhancement of neuron outgrowth associated with CH02 treatment | – | – |
| N#CC(=C(/N)Sc1ccccc1N)/C(C#N)=C(/N)Sc1ccccc1N [U0126] | – | – | had little effect | had little effect |
